Test results taken from patent US20200002377A1, “COMPOUNDS USEFUL FOR THE TREATMENT AND/OR CARE OF THE SKIN, HAIR, NAILS AND/OR MUCOUS MEMBRANES” (LUBRIZOL ADVANCED MATERIALS, INC., priority 2016, published 2020).

Assays:
[1] = test system: Nuclear Factor Kappa B subunit 1 (NFKB1); test: Innate immune response gene expression in HEKa, real time PCR array; type: cell-based, human; settings: 50 μg/ml, 24 h
Description: (§1) HEKa cells (Life Technologies) are seeded at 6.0×10^5 cells/well in 6-well plates and incubated in culture medium Epillfe™ with defined Growth Supplement (EDGS, Life Technologies), at 37° C. in a water-saturated atmosphere of 95% air and 5% CO2. After 24 hours of incubation under these conditions, medium is removed and cells are incubated with 50 μg/ml (w/v) of a peptide of the invention (see Table 16) in fresh culture medium keeping two wells where HEKa cells are incubated with medium only (basal conditions) at 37° C. and 5% CO2.
After 24 h of incubation, the cells are lysed directly in the wells following the protocol described on the RNeasy™ Mini kit (Qiagen) according to the manufacturer's protocol. The lysed cells are homogenized and the RNases are inactivated. The genomic DNA is removed from the samples by using gDNA Eliminator spin columns (Qiagen). Then the samples are passed through special RNA binding columns (Qiagen) and, after several microcentrifugation washes to eliminate contaminants and impurities, the purified RNA is eluted with 50 μl of ultrapure water. Quantification and analysis of purity of RNA samples are performed after RNA elution with a biophotometer (Eppendorf). 1 μg of high-quality RNA is retrotranscribed with iScript™ advanced (BioRad) in a final volume of 20 μl·Complete reaction mix is incubated in a thermal cycler (Eppendorf) at 42° C. for 30 minutes, and the reactions are stopped at 85° C. for 5 minutes. Complementary DNA is amplified by qPCR in a real-time PCR thermocycler (BioRad) using SYBR®Green supermix (BioRad) and a customized plate for use with SYBR®Green (BioRad). SYBR®Green binds to double-stranded DNA molecules and emits fluorescence which is quantified and is proportional to the amount of the product in the PCR reaction. Cycling conditions in BioRad CFX96™ instrument are 95° C. for 3 minutes, followed by 40 cycles of denaturing at 95° C. for 5 seconds, annealing and elongation at 60° C. for 30 seconds. GAPDH (Glyceraldehyde 3-phosphate dehydrogenase), TBP (TATA box binding protein) and HRPT1 (hypoxanthine phosphoribosyltransferase 1) are used as endogenous controls. Fold change relative to the expression of the sample genes and reference genes is calculated using normalized expression (ΔΔ(Ct)) method with default threshold values using CFX Manager Software (BioRad).
(§2) Genes analyzed are Chemokine (C-C motif) Ligand 5 (CCL5), Myeloid Differentiation primary response gene 88 (MyD88), Nuclear Factor Kappa B subunit 1 (NFKB1) and interferon Regulatory Factor 3 (IRF3).

[2] = test system: Staphylococcus epidermidis; test: Adherence of Staphylococcus epidermidis in keratinocytes (HaCaT) in competition with S. aureus bioparticles; type: cell-based; settings: 50 μg/ml, 24 h, basal = 0
Description: After that treatment, cells are washed with phosphate-buffered saline (PBS, Sigma) and are then incubated with a solution of Staphylococcus epidermidis (ATCC®12228™, Culture Collections) treated with green-fluorescence calcein AM (Life technologic) and Alexa Fluor 594™ Bioparticles Staphylococcus aureus (ThermoFisher) in PBS for 30 minutes at 37° C. and protected from light. At the end of the incubation period, cells are washed with PBS and fixed in 4% (v/v) paraformaldehyde (PFA, Sigma) for 30 minutes. After rinsing with PBS, the nuclei are stained with Hoechst 33342, trihydrochloride trihydrate (ThermoFisher) in PBS for 10 minutes before analysis.
Cellular imaging is performed by fluorescence microscopy using the Operetta® High Content Imaging System (PerkinElmer). From each fluorescence image, Staphylococcus epidermidis is quantified as a number of spots and normalized against the number of keratinocyte nuclei and the total bacteria number (understood as the addition of detected S. epidermidis spots and S. aureus bioparticles). Each value obtained is normalized respect to basal conditions (non-treated keratinocytes). An image is taken in three different fields per well. 12 representative images from each condition are analyzed with Harmony software (PerkinElmer).
The normalized percentage of Staphylococcus epidermidis respect to basal conditions in treated keratinocytes is represented in Table 17.

[3] = test system: Tight Junction Protein 1 (TJP1); test: Tight junction gene expression in HEKa, real time PCR array; settings: 50 μg/ml, 24 hours
Description: (§3) HEKa cells (Life Technologies) are seeded at 6.0×10^5 cells/well in 6-well plates and incubated in culture medium Epilife™ with defined Growth Supplement (EDGS, Life Technologies) at 37° C. in a water-saturated atmosphere of 95% air and 5% CO2. After 24 hours of incubation under these conditions, medium is removed and cells are incubated with 50 μg/ml of a peptide of the invention (see Table 12) in fresh culture medium, except for two wells where HEKa cells are incubated with medium only (basal conditions), at 37° C. and 5% CO2.
(§4) After 24 hours of incubation, the cells are lysed directly in the wells following the protocol described on the RNeasy™ Mini kit (Qiagen) according to the manufacturer's protocol. The lysed cells are homogenized and the Rnases are inactivated. The genomic DNA is removed from the samples by using gDNA Eliminator spin columns (Qiagen). […] Quantification and analysis of purity of RNA samples are performed after RNA elution with a biophotometer (Eppendorf). […] SYBR Green binds to double-stranded DNA molecules and emits fluorescence which is quantified and is proportional to the amount of the product in the PCR reaction. […] Fold change relative to the expression of the sample genes and reference genes is calculated using normalized expression (ΔΔ(Ct)) method with default threshold values using CFX Manager Software (BioRad).

[4] = test system: interferon Regulatory Factor 3 (IRF3); test: Innate immune response gene expression in HEKa, real time PCR array; settings: 50 μg/ml, 24 h
Description: as §1
After 24 h of incubation, the cells are lysed directly in the wells following the protocol described on the RNeasy™ Mini kit (Qiagen) according to the manufacturer's protocol. […] Quantification and analysis of purity of RNA samples are performed after RNA elution with a biophotometer (Eppendorf). […] SYBR®Green binds to double-stranded DNA molecules and emits fluorescence which is quantified and is proportional to the amount of the product in the PCR reaction. […] Fold change relative to the expression of the sample genes and reference genes is calculated using normalized expression (ΔΔ(Ct)) method with default threshold values using CFX Manager Software (BioRad).
as §2

Claudin 1 (CLDN1) = test: Tight junction gene expression in HEKa, real time PCR array; settings: 50 μg/ml, 24 hours
Description: as §3, §4

[5] = test system: Reconstructed Human Epidermis (RHE); test: Lipidomic profile (UPLC-MS) of in vitro epidermal model; type: cell-based; settings: 50 μg/ml, 24 hours, vs basal conditions
Description: The SkinEthic human tissue models (EpiSkin™) are removed from their agarose-nutrient solution in the multiwell plate immediately after arrival and are placed in a 6-well plate in which each well has previously been filled with SkinEthic Growth Medium (EpiSkin™). After overnight incubation at 37° C., 5% CO2, Reconstructed Human Epidermis (RHE) are treated with 50 μg/ml of peptides Ac-Glu-Glu-Met-Gln-Arg-Arg-NH2 (PEP-1), Ac-Glu-Glu-Met-Gln-Arg-Arg-Ala-NH2 (PEP-2) or Ac-Glu-Glu-Met-Gln-Arg-Arg-Ala-Asp-NH2 (PEP-3) or medium (basal conditions) for 24 hours at 37° C. and 5% CO2. After the 24 hours treatment, RHE are frozen and stored at −20° C. Each treatment is applied to five RHE per condition.
Epidermal membrane model samples are thawed and removed from the inserts using a scalpel and transferred to homogenization tubes. Samples are mixed with sodium chloride (50 mM) and chloroform/methanol (2/1) (v:v) and homogenized. The extraction solvent is spiked with metabolites not detected in unspiked human serum extracts. After homogenizing the samples, extracts are incubated for 1 hour at −20° C. and centrifuged at 18,000×g for 15 minutes. The organic phase is then collected and dried under vacuum. Dried extracts are finally reconstituted in acetonitrile/isopropanol (1/1) (v:v), centrifuged at 18,000×g for 5 minutes and transferred to vials for UPLCs-MS analysis.
All data are processed using the TargetLynx™ application manager for MassLynx™ 4.1 software (Waters Corp., Milford, USA). A set of predefined retention time, mass-to-charge ratio pairs, Rt-m/z, corresponding to metabolites included in the analysis are fed into the program. Associated extracted ion chromatograms (mass tolerance window=0.05 Da) are then peak-detected and noise-reduced in both the LC and MS domains such that only true metabolite related features are processed by the software. A list of chromatographic peak areas is then generated for each sample injection and value respect to basal conditions is calculated.
Average of five values obtained for each peptide in relation to those obtained for basal conditions (without peptide in the medium) are shown in Table 11.

[6] = test system: tight junction (TJ) barrier in reconstructed human epidermis (RHE); test: TJ permeability assay, biotin dye penetration in RHE with SDS; type: cell-based; settings: 24 hours
Description: TJ permeability assay using surface biotinylation technique was performed in incubated reconstructed human epidermis (RHE) with EZ-UN Sulfo-NHS-LC-LC-Biotin from the dermal side. The aim of this study is to investigate the ability of peptides of the invention to enhance the barrier function by inhibiting diffusion of the dye through stratum granulosum in presence of sodium dodecyl sulfate (SDS) which causes functional deterioration of TJs.
SkinEthic human tissue models (EpiSkin) are removed from their agarose-nutrient solution in a multiwell plate immediately after arrival and are placed in a 6-well plate in which each well has previously been filled with SkinEthic Growth Medium (EpiSkin). After overnight incubation at 37° C., 5% CO2, tissue models are treated with 50 μg/ml of peptide Ac-Glu-Glu-Met-Gln-Arg-Arg-Ala-NH2 (PEP-2) and a 0.02 mg/ml sodium dodecyl sulfate (SDS, Sigma) solution in growth medium, (1 ml/well). […]
Microscopical observations are performed with a Zeiss fluorescence microscope and photographs of each condition are taken with the associated camera. Fluorescence images of biotin are quantified as the product of its area and the intensity mean value of channel ‘EGFP’ Green (excitation: 488 nm and emission: 509 nm) and normalized by basal conditions. At least 12 representative images from each condition are collected and analyzed with the ZEN software (Zeiss). […]

[7] = test system: stratum corneum barrier in reconstructed human epidermis (RHE); test: Toluidine blue diffusion assay in RHE with SDS; type: cell-based; set-up: key: 4: Strong; 3: Clear; 2: Moderate; 1: Slight; settings: 24 h, SDS 0.02 mg/ml on top layer, peptide 50 μg/ml + SDS
Description: The SkinEthic human tissue models (EpiSkin) are removed from their agarose-nutrient solution in the multiwell plate immediately after arrival and are placed in a 6-well plate in which each well has previously been filled with SkinEthic Growth Medium (EpiSkin). After overnight incubation at 37° C., 5% CO2, the top layer of tissue model is treated with 100 μl of a 50 μg/ml solution of peptide Ac-Glu-Glu-Met-Gln-Arg-Arg-Ala-NH2 (PEP-2) in a 0.02 mg/ml sodium dodecyl sulfate (SDS, Sigma) solution in growth medium and dermal side of tissue model is treated with 1 ml of a 50 μg/ml solution of the same peptide in growth medium. The top layer and dermal side of a tissue model is treated with growth medium as basal condition. In another tissue model, its top layer is treated with a 0.02 mg/ml SDS solution in growth medium while its dermal side is treated with growth medium alone, both in absence of peptide, for its use as a positive control. All incubations are performed at 37° C. and 5% CO2 for 24 h.
After the 24-hours treatment, the top layer of tissue models are further treated with 200 μl of methanol for 2 min at room temperature and, after that, they are rinsed twice with 200 μl of phosphate-buffered saline (PBS, Sigma). […] At least 12 representative images from each condition are collected and scored according to the ranking described in Table 14. […]

Ac-EEMQRR-OH [PEP-61, Ac-Glu-Glu-Met-Gln-Arg-Arg-OH]
NFKB1 fold induction respect to basal conditions [1]: 1.71 | S. epidermidis (%), normalized percentage respect to basal conditions [2]: 3.08% | TJP1 fold induction respect to basal conditions [3]: 1.71

Ac-EQMQRR-NH2 [PEP-50, Ac-Glu-Gln-Met-Gln-Arg-Arg-NH2]
NFKB1 fold induction respect to basal conditions [1]: 2.25 | S. epidermidis (%), normalized percentage respect to basal conditions [2]: 4.14% | IRF3 fold induction respect to basal conditions [4]: 2.25

Ac-EEMQRKAD-NH2 [PEP-14, Ac-Glu-Glu-Met-Gln-Arg-Lys-Ala-Asp-NH2]
NFKB1 fold induction respect to basal conditions [1]: 2.59 | S. epidermidis (%), normalized percentage respect to basal conditions [2]: 22.18% | CLDN1 fold induction respect to basal conditions (Claudin 1 (CLDN1)): 2.59

H-EEMQRH-NH2 [PEP-57, H-Glu-Glu-Met-Gln-Arg-His-NH2]
NFKB1 fold induction respect to basal conditions [1]: 2.49 | S. epidermidis (%), normalized percentage respect to basal conditions [2]: 13.57% | IRF3 fold induction respect to basal conditions [4]: 2.49

Ac-EEMQRR-NH2 [PEP-1, Ac-Glu-Glu-Met-Gln-Arg-Arg-NH2]
Cer_AP48 N-(alpha-hydroxyacyl) phytosphingosines [5]: 1.21 fold change | Cer_NP48 N-acyl phytosphingosines [5]: 1.21 fold change | Cer_NP49 N-acyl phytosphingosines [5]: 1.17 fold change | Cer_NP50 N-acyl phytosphingosines [5]: 1.18 fold change | Cer_NP51 N-acyl phytosphingosines [5]: 1.44 fold change | Cer_NS50 N-acyl sphingosines [5]: 1.20 fold change | Cer_NS51 N-acyl sphingosines [5]: 1.14 fold change | Cer_NS52 N-acyl sphingosines [5]: 1.35 fold change | Cer_NdS47 N-acyl dihydrosphingosines [5]: 1.14 fold change | Cer_NdS48 N-acyl dihydrosphingosines [5]: 1.21 fold change | Cer_NdS49 N-acyl dihydrosphingosines [5]: 1.38 fold change | Cer_NdS50 N-acyl dihydrosphingosines [5]: 1.42 fold change | NFKB1 fold induction respect to basal conditions [1]: 2.59 | S. epidermidis (%), normalized percentage respect to basal conditions [2]: 13.63. %

Ac-EEMQRRA-NH2 [PEP-2, Ac-Glu-Glu-Met-Gln-Arg-Arg-Ala-NH2]
Cer_AP48 N-(alpha-hydroxyacyl) phytosphingosines [5]: 1.37 fold change | Cer_NP48 N-acyl phytosphingosines [5]: 1.24 fold change | Cer_NP49 N-acyl phytosphingosines [5]: 1.23 fold change | Cer_NP50 N-acyl phytosphingosines [5]: 1.23 fold change | Cer_NP51 N-acyl phytosphingosines [5]: 1.19 fold change | Cer_NS50 N-acyl sphingosines [5]: 1.18 fold change | Cer_NS51 N-acyl sphingosines [5]: 1.13 fold change | Cer_NS52 N-acyl sphingosines [5]: 1.37 fold change | Cer_NdS47 N-acyl dihydrosphingosines [5]: 1.10 fold change | Cer_NdS48 N-acyl dihydrosphingosines [5]: 1.23 fold change | Cer_NdS49 N-acyl dihydrosphingosines [5]: 1.46 fold change | Cer_NdS50 N-acyl dihydrosphingosines [5]: 1.50 fold change | penetration of biotin to stratum corneum (result in words) ([6]; peptide 50 μg/ml with 0.02 mg/ml SDS): able to strengthen the tight junction (TJ) barrier | Total score (Toluidine Blue staining) [7]: 2 | NFKB1 fold induction respect to basal conditions [1]: 2.19 | S. epidermidis (%), normalized percentage respect to basal conditions [2]: 24.69%

Ac-EEMQRRED-NH2 [PEP-23, Ac-Glu-Glu-Met-Gln-Arg-Arg-Glu-Asp-NH2]
NFKB1 fold induction respect to basal conditions [1]: 2.58 | S. epidermidis (%), normalized percentage respect to basal conditions [2]: 20.10% | CLDN1 fold induction respect to basal conditions (Claudin 1 (CLDN1)): 2.58

CCCCCCCCCCCCOS(=O)(=O)[O-].[Na+] [SDS, sodium dodecyl sulfate, reference compound]
Fold change with respect to basal condition (biotin fluorescence) ([6]; treatment from dermal side): 1.90 | Total score (Toluidine Blue staining) [7]: 4

Ac-EEMQRRAD-NH2 [PEP-3, Ac-Glu-Glu-Met-Gln-Arg-Arg-Ala-Asp-NH2]
Cer_AP48 N-(alpha-hydroxyacyl) phytosphingosines [5]: 1.15 fold change | Cer_NP48 N-acyl phytosphingosines [5]: 1.19 fold change | Cer_NP49 N-acyl phytosphingosines [5]: 1.14 fold change | Cer_NP50 N-acyl phytosphingosines [5]: 1.30 fold change | Cer_NP51 N-acyl phytosphingosines [5]: 1.24 fold change | Cer_NS50 N-acyl sphingosines [5]: 1.14 fold change | Cer_NS51 N-acyl sphingosines [5]: 1.10 fold change | Cer_NS52 N-acyl sphingosines [5]: 1.30 fold change | Cer_NdS47 N-acyl dihydrosphingosines [5]: 1.20 fold change | Cer_NdS48 N-acyl dihydrosphingosines [5]: 1.34 fold change | Cer_NdS49 N-acyl dihydrosphingosines [5]: 1.43 fold change | Cer_NdS50 N-acyl dihydrosphingosines [5]: 1.68 fold change | NFKB1 fold induction respect to basal conditions [1]: 2.04 | S. epidermidis (%), normalized percentage respect to basal conditions [2]: 11.46%
